{
  "source": "patent US20170056379A1",
  "about": "“METHOD OF USING DOPAMINE REUPTAKE INHIBITORS AND THEIR ANALOGS FOR TREATING DIABETES SYMPTOMS AND DELAYING OR […]-[…]” (CALIPER LIFE SCIENCES, INC., priority 2009, published 2017)",
  "format_in_all_cases": "in vivo",
  "key": {"[1]": {"test_system": "FVB strain of mice", "test": "Mediation of diabetic-induced hypoalgesia (Hot-plate assay)", "conditions": "for (Mean − Mean0)/Std0 (Wilcoxon rank sums, hot plate latency) / Score Mean (Wilcoxon rank sums, hot plate latency) / Score Sum (Wilcoxon rank sums, hot plate latency): hot plate 48° C.", "protocol": "Mediation of diabetic-induced hypoalgesia (Hot-plate assay)—Mice were brought to the testing room and acclimatized for an hour before test. Pain reflexes in response to a thermal stimulus are measured using a Hot Plate Analgesia Meter from Harvard Apparatus. The plate surface was maintained at 48° C. that was measured by a built-in digital thermometer. Mice were placed on the hot plate which is surrounded by a clear acrylic cage with the Start/Stop trigger on the timer. […] For each subject, the test was performed three times with about 30 minute rest between tests. Animals were tested one at a time and were not habituated to the apparatus prior to testing."}, "[2]": {"test_system": "FVB strain of mice", "test": "Mediation of diabetic hypoalgesia (Tail-flick assay)", "conditions": "for (Mean − Mean0)/Std0 (Wilcoxon rank sums, tail-flick latency) / Score Mean (Wilcoxon rank sums, tail-flick latency) / Score Sum (Wilcoxon rank sums, tail-flick latency): 5.0 mg/kg p.o. an hour before test", "protocol": "Mediation of diabetic hypoalgesia (Tail-flick assay)—Mice were brought to the testing room, acclimatized and administered 3-(phenylpropyl)-sydnonimine-N-phenylcarbamoyl (5.0 mg/kg; p.o.) an hour before test. Pain reflexes in response to a thermal stimulus are measured using a tail-flick analgesic meter with a built in stop-timer from Columbus Instruments. Latencies to respond for the thermal stimulation is recorder. For each subject, the test was performed three times with about 30 minute rests between tests. Animals are tested one at a time and are not habituated to the apparatus prior to testing."}, "[3]": {"test_system": "FVB strain of mice", "test": "Home-cage health and behavior", "conditions": "high-fat-diet-drug-treated group, in contrast to the high-fat-diet-vehicle-treated group", "from_the_text": "Home-cage health and behavior—This is not a […] measurement but the behavior pattern that we noticed during the study. All 4 groups of animals were housed in pairs or trios according to stratification of either treated with drug or vehicle. For three of the 4 groups, e.g. Normal Diet-drug-treated, Normal Diet-vehicle-treated, and high-fat-diet-drug-treated, the animals appear to be healthy, were docile to handlers and non-aggressive with each other. However the high-fat-diet-vehicle-treated group started to develop underbelly lesions, bite marks, and aggressive behavior towards littermates. This pattern of behavior became especially noticeable after overnight fasting (in order for fasting blood glucose level). In fact, after the above mentioned second examination (examination of fasting blood glucose level after 4 weeks of drug treatment), one of the mice in the high-fat-diet-vehicle-treated group had to be euthanized due to wounds and lesions. The remainders (of the four mice) were subsequently housed individually. These changes of behavior patterns and or behavior oddities are likely indicative of neurological changes under pre-diabetic or diabetic conditions."}, "[4]": {"test_system": "FVB strain of mice", "test": "Mediation of hyperglycemic conditions: blood glucose and body mass in high fat diet mice", "conditions": "10 mg/kg p.o. daily six days a week, after 4 weeks of treatment", "from_the_text": "Mediation of hyperglycemic conditions—FVB strain of mice were used in this study. In our previous study (unpublished), we noted that the FVB strain provides a broad phenotypic window for most parameters of human diabetic conditions similar to C57B1/6. For instance, there was a noted weight gain and obesity induced with high and intermediate fat diets. A persistent high fat diet induces relatively robust hyperglycemic conditions and inefficient glucose disposal but with little noted effects on metabolic rate. There is little circadian impact and changes in activity patterns with the high fat diet.\nTwenty FVB mice (˜12 weeks of age) were randomly separated into two groups (n=10). One group (of ten mice) was fed a high fat diet (ResearchDiets, New Brunswick, N.J., and Cat. #D12492); with the following caloric components: 20 percent protein; 20 percent carbohydrate; and 60 percent fat; 5.24 kcal/gram. Another group was fed with regular rodent chow (Labdiet, Richmond, Ind., product code 5010); 28.7 percent protein, 12.7 percent fat, and 58.6 percent carbohydrate; 3.43 kcal/gram. After seven-weeks, blood glucose levels (and body weight) of the two different groups were examined. […] The group fed on the high fat diet clearly developed a hyperglycemic condition. The difference in body mass was also clearly significant.\nEach of the two groups were then further separated into two subgroups (n=5). For the high fat diet group, the separation of the animals from the hyperglycemic/high fat diet group into two sub-groups was normalized based on the blood glucose levels. One group, designated as high fat-D, were treated with a dopamine reuptake inhibitor (3-(phenylpropyl)-sydnonimine-N-phenylcarbamoyl), the other group, designated as high fat-N were treated with vehicle (30% captosol, 1% Tween (Tween® 20, a polyoxyethylene sorbitan esters available from Sigma) and 1% 1N HCl in H2O; hereafter referred to as vehicle). For the normal chow group, the separation was random but similarly designated and separated into drug treated (Normal-D) and vehicle controls (Normal-N). […]"}},
  "note": "Entries after “also recorded” stand apart in the source; their conditions may differ.",
  "data": [
    {"smiles": "CC(Cc1ccccc1)[n+]1cc([N-]C(=O)Nc2ccccc2)on1", "note": "(centres unmarked) [3-(phenylpropyl)-sydnonimine-N-phenylcarbamoyl]", "values": [
      {"measurement": "thermal responses of high-fat-diet-drug-treated subjects compared with Normal Diet-vehicle-treated (hot plate)", "setting": "[1]; FIG. 3", "result": "virtually no difference was observed"},
      {"measurement": "effect on hypoalgesic conditions induced by diabetic conditions (hot plate test)", "setting": "[1]; FIG. 3, high fat diet mice", "result": "attenuated the hypoalgesic"},
      {"measurement": "(Mean − Mean0)/Std0 (Wilcoxon rank sums, hot plate latency)", "setting": "[1]; High Fat-D group", "result": "−1.528"},
      {"measurement": "Score Mean (Wilcoxon rank sums, hot plate latency)", "setting": "[1]; High Fat-D group", "result": 6.600},
      {"measurement": "Score Sum (Wilcoxon rank sums, hot plate latency)", "setting": "[1]; High Fat-D group", "result": 33.000},
      {"measurement": "(Mean − Mean0)/Std0 (Wilcoxon rank sums, hot plate latency)", "setting": "[1]; Normal-D group", "result": 1.898},
      {"measurement": "Score Mean (Wilcoxon rank sums, hot plate latency)", "setting": "[1]; Normal-D group", "result": 14.200},
      {"measurement": "Score Sum (Wilcoxon rank sums, hot plate latency)", "setting": "[1]; Normal-D group", "result": 71.000},
      {"measurement": "thermal responses of high-fat-diet-drug-treated subjects compared with Normal Diet-vehicle-treated (tail-flick)", "setting": "[2]; FIG. 4", "result": "virtually no difference was observed"},
      {"measurement": "effect on hypoalgesic conditions induced by diabetic conditions (tail-flick test)", "setting": "[2]; FIG. 4, high fat diet mice", "result": "attenuated the hypoalgesic"},
      {"measurement": "(Mean − Mean0)/Std0 (Wilcoxon rank sums, tail-flick latency)", "setting": "[2]; High Fat-D group", "result": "−2.268"},
      {"measurement": "Score Mean (Wilcoxon rank sums, tail-flick latency)", "setting": "[2]; High Fat-D group", "result": 5.000},
      {"measurement": "Score Sum (Wilcoxon rank sums, tail-flick latency)", "setting": "[2]; High Fat-D group", "result": 25.000},
      {"measurement": "(Mean − Mean0)/Std0 (Wilcoxon rank sums, tail-flick latency)", "setting": "[2]; Normal-D group", "result": "−0.139"},
      {"measurement": "Score Mean (Wilcoxon rank sums, tail-flick latency)", "setting": "[2]; Normal-D group", "result": 9.600},
      {"measurement": "Score Sum (Wilcoxon rank sums, tail-flick latency)", "setting": "[2]; Normal-D group", "result": 48.000},
      {"measurement": "home-cage health and behavior", "setting": "[3]", "result": "remained healthy, docile and playful with littermates"},
      {"measurement": "body mass of high fat diet groups compared with Normal Diet groups", "setting": "[4]", "result": "still noticeably higher than the groups on the Normal Diet regardless of the drug exposure"},
      {"measurement": "blood glucose levels of drug treated groups compared with respective sham treated groups", "setting": "[4]; high fat and Normal Diet groups", "result": "lower levels of blood glucose than their respective sham treated groups"},
      {"measurement": "blood glucose levels of high fat diet drug treated mice compared with Normal Diet group", "setting": "[4]; high fat diet, 10 mg/kg", "result": "indistinguishable from the group of mice fed a Normal Diet; also recorded: no discernable differences"}
    ]}
  ]
}
